Data as given in patent US8580780B2, “6 substituted 2, 3,4,5 tetrahydro-1H-benzo[d]azepines as 5-HT2C receptor agonist” (Eli Lilly and Company, priority 2004, dated 2013).

Key:
[1] = rat, in vivo; cited from earlier work
[2] = mouse, in vivo; cited from earlier work
[3] = Nestlet shredding; format: in vivo, male NIH Swiss mice; conditions: mice, 30 min
From the text: Mice naturally will construct nests of material available in their living environment. Since this behavior is obsessive in nature, it has been used to model OCD (Xia Li, Denise Morrow and Jeffrey M. Witkin, “Decreases in nestlet shredding of mice by serotonin uptake inhibitors: comparison with marble burying”, Psychopharmacology, submitted Jul. 14, 2003). House experimentally-naïve male, NIH Swiss mice (Harlan Sprague-Dawley, Indianapolis, Ind.) weighing between 28-35g in groups of 12 for at least three days prior to testing in a vivarium with a 12 h light/dark cycle. Conduct experiments during the light cycle in an experimental room with normal overhead fluorescent lighting. Dose mice with vehicle or test compound and after a specified pretreatment interval (generally 30 min.), place the mice individually in a 17×28×12 cm high plastic tub with about 5 mm sawdust shavings on the floor along with a pre-weighed multi-ply gauze pad (51 mm square). After 30 min., weigh the remainder of the game pad not removed by the mouse. Determine the weight of the gauze used for nestlet construction by subtraction. Compare the results for test compound treated mice to the results for vehicle control treated mice with Dunnett's test.
Clinically effective OCD treatment standard compounds suppress nestlet shredding at doses that are devoid of motor-impairing effects as measured by the rotorod test. […]

[4] = Schedule-induced polydipsia; format: in vivo, Wistar rats
From the text: Food-deprived rats exposed to intermittent presentations of food will drink amounts of water that are far in excess of their normal daily intake and in excess of their intake when given all of their food at one time (Falk J L. “Production of polydipsia in normal rats by an intermittent food schedule”, Science 133: 195-196, (1961)). This excessive behavior is persistent and has been used to model OCD.
Maintain Wistar rats on a food restricted diet (to maintain 85% free feeding weight), but with free access to water. Train the rats in a behavioral testing chamber to press a lever to receive a food pellet under a fixed interval schedule, such that the rats are rewarded with a 45 mg food pellet the first time they press a lever after a 120 second interval has elapsed. The fixed interval is then reset to 120 seconds and the process repeated. Thus, during a 90 min. test session, the rats can earn a maximum of 45 pellets. The behavioral chamber is also equipped with a water bottle that is weighed before and after the session to determine the amount of water consumed.
Administer test compounds on Tuesdays and Fridays. […] Compare the rates of lever pressing and water consumption for each animal's performance during sessions after test compound treatment with that animal's performance during control sessions, expressed as a percent of the control rate. […]

[5] = Marble burying assay; format: in vivo, male NIH Swiss mice; conditions: mice, 30 min session, with rotorod check
From the text: Marble burying in mice has been used to model anxiety disorders including obsessive-compulsive disorders (OCD) due to ethological study of the behavior (e.g. Gyertyan I. “Analysis of the marble burying response: Marbles serve to measure digging rather than evoke burying”, Behavioural Pharmacology 6: 24-31, (1995)) and due to the pharmacological effects of clinical standards (c.f., Njung'E K. Handley S L. “Evaluation of marble-burying behavior as a model of anxiety”, Pharmacology, Biochemistry & Behavior. 38: 63-67, (1991)); Borsini F., Podhorna J., and Marazziti, D. “Do animal models of anxiety predict anxiolytic effects of antidepressants?”, Psychopharmacology 163: 121-141, (2002)).
House experimentally-naïve male, NIH Swiss mice (Harlan Sprague-Dawley, Indianapolis, Ind.) weighing between 28-35g in groups of 12 for at least three days prior to testing in a vivarium with 12 h light and dark cycles. Conduct experiments during the light cycle in a dimly lit experimental testing room. Dose mice with vehicle or test compound and, after a specified pretreatment interval (generally 30 min.), place each mouse individually on a rotorod (Ugo Basile 7650) operating at a speed of 6 revolutions/min. and observe for falling. […]
Clinically effective standard compounds suppress marble burying at doses that are devoid of motor-impairing effects as measured on the rotorod. […]

For `CNCCC(Oc1ccc(C(F)(F)F)cc1)c1ccccc1` (centres unmarked) [fluoxetine], the “schedule-induced polydipsia (clinically effective OCD standards)” value [1] is given as “suppress schedule-induced polydipsia without producing notable changes in motor patterns, food intake, or behavior the following day” and the “marble burying (clinical standards, literature)” value [2] is given as “decrease burying”.
In the case of `C[C@H](N)Cc1ccccc1` [d-amphetamine], the nestlet shredding [3] is reported as “decreases nestlet shredding only at doses that produce motoric side effects”, the “Effect on polydipsia with co-administration of 5-HT2C antagonist” value ([4]; rat, in vivo) is reported as “not prevented by the 5HT2C receptor antagonist” and the “schedule-induced polydipsia (excessive drinking)” value ([4]; rats, 90 min session) is reported as “decreases excessive drinking only at behaviorally stimulating doses”.
`Clc1ccc2c(c1SCc1ccccn1)CCNCC2.O=C(O)CCC(=O)O` gave a melting point of 159 to 160 °C.
For `CN(C)CCCN1c2ccccc2Sc2ccc(Cl)cc21` [chlorpromazine], the marble burying behavior [5] was “decrease marble burying only at doses that also disrupt rotorod performance”.
For `CN(C)CCCN1c2ccccc2CCc2ccc(Cl)cc21` [chlomipramine], the “schedule-induced polydipsia (clinically effective OCD standards)” value [1] is listed as “suppress schedule-induced polydipsia without producing notable changes in motor patterns, food intake, or behavior the following day”.
